Target: TENT4B (PAPD5) (Homo sapiens, UniProt Q8NDF8)
Test: ATP depletion polyadenylation assay
Assay type: biochemical

TENT4B (PAPD5), sequence (Q8NDF8 whole entry): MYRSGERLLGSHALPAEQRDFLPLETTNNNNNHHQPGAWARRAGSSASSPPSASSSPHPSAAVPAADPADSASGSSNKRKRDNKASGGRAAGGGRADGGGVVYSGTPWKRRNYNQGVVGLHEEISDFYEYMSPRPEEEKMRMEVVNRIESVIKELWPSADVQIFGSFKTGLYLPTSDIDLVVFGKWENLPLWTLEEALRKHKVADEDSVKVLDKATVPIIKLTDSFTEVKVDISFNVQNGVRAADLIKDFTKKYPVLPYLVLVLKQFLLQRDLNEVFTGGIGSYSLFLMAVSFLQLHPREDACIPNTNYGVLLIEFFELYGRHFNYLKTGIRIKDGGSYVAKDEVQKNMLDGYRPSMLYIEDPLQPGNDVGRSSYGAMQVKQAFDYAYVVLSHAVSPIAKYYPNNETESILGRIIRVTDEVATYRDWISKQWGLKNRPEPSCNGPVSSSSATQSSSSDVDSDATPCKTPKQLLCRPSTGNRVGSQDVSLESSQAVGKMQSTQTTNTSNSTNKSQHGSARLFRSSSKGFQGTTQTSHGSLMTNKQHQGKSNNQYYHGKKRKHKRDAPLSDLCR

| IC50 [nM] | Structure (SMILES) |
| --- | --- |
| 1.3 | COCCCOc1cc2c(cc1OC)-c1cc(=O)c(C(=O)O)cn1[C@H](C(C)C)C2 [RG7834] |
| 76 | COCCCOc1cc2c(cc1OC)-c1cc(=O)c(C(=O)O)cn1[C@@H](C(C)C)C2 [RO0321] |

— doi:10.1101/718940v1 (biorxiv, 2019)
